Test: Hair relaxing test: simplified aqueous composition applied to hair
Experimental: A simplified hair relaxing composition was prepared, containing N″,N″-1,3-propanediylbis[N,N,N′,N′-tetramethylguanidine] (RN: 289474-28-8) at a concentration of 0.5M in water, as active relaxing agent. This composition was applied to naturally frizzy African hair for 20 minutes at a temperature of 30° C.
A simplified hair relaxing composition was prepared, containing N″,N″,N″″-(nitrilotri-2,1-ethanediyl)tris[N,N,N′,N′-tetramethylguanidine] (RN: 368866-05-1) at a concentration of 0.25M in water, as active relaxing agent. This composition was applied to naturally frizzy African hair for 25 minutes at a temperature of 30° C.

For `CN(C)C(=NCCN(CCN=C(N(C)C)N(C)C)CCN=C(N(C)C)N(C)C)N(C)C` [N″,N″,N″″-(nitrilotri-2,1-ethanediyl)tris[N,N,N′,N′-tetramethylguanidine]], the hair relaxing (0.25M in water, applied for 25 minutes at 30° C) was “effectively relaxed”.

With `CN(C)C(=NCCCN=C(N(C)C)N(C)C)N(C)C` [N″,N″-1,3-propanediylbis[N,N,N′,N′-tetramethylguanidine]] the hair relaxing (0.5M in water, applied for 20 minutes at 30° C) was “effectively relaxed”.
